Experimental data as given in PubChem BioAssay (NCI).
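Cells were grown in 96-well plates and exposed to each compound for 48 hours at five concentrations; endpoints were interpolated linearly between bracketing concentrations, or set to the highest concentration if not reached. TGI marks complete inhibition of growth.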

Legend:
Assay in all cases: NCI-60 cell line screen, 48 h
[1] = tested on: M14 melanoma
[2] = tested on: 786-0 renal
[3] = tested on: OVCAR-5 ovarian
[4] = tested on: RPMI-8226 leukemia
[5] = tested on: SK-MEL-28 melanoma
[6] = tested on: SW-620 colon
[7] = tested on: CAKI-1 renal
[8] = tested on: HOP-62 NSCLC
[9] = tested on: U251 CNS
[10] = tested on: SN12C renal
[11] = tested on: MOLT-4 leukemia
[12] = tested on: HT29 colon
[13] = tested on: SK-OV-3 ovarian
[14] = tested on: DMS 114 small cell lung
[15] = tested on: HL-60(TB) leukemia
[16] = tested on: LOX IMVI melanoma
[17] = tested on: SR leukemia
[18] = tested on: OVCAR-4 ovarian
[19] = tested on: SF-539 CNS
[20] = tested on: SF-268 CNS
[21] = tested on: DMS 273 small cell lung
[22] = tested on: NCI-H23 lung
[23] = tested on: HOP-92 NSCLC
[24] = tested on: HCT-15 colon
[25] = tested on: HOP-18 NSCLC
[26] = tested on: A549 NSCLC
[27] = tested on: SNB-75 CNS
[28] = tested on: DLD-1 colon
[29] = tested on: NCI-H226 lung
[30] = tested on: IGROV1 ovarian
[31] = tested on: OVCAR-3 ovarian
[32] = tested on: K-562 leukemia
[33] = tested on: OVCAR-8 ovarian
[34] = tested on: KM12 colon
[35] = tested on: NCI-H522 lung
[36] = tested on: UACC-257 melanoma
[37] = tested on: TK-10 renal
[38] = tested on: SNB-78 CNS
[39] = tested on: UO-31 renal
[40] = tested on: KM20L2 colon
[41] = tested on: SF-295 CNS
[42] = tested on: COLO 205 colon
[43] = tested on: HCT-116 colon
[44] = tested on: LXFL 529 NSCLC
[45] = tested on: CCRF-CEM leukemia
[46] = tested on: SK-MEL-2 melanoma
[47] = tested on: RXF 393 renal
[48] = tested on: NCI-H460 lung
[49] = tested on: MALME-3M melanoma
[50] = tested on: ACHN renal
[51] = tested on: SK-MEL-5 melanoma
[52] = tested on: EKVX NSCLC
[53] = tested on: PC-3 prostate
[54] = tested on: MDA-N
[55] = tested on: UACC-62 melanoma
[56] = tested on: MDA-MB-231 breast
[57] = tested on: BT-549 breast
[58] = tested on: HCC-2998 colon
[59] = tested on: MDA-MB-435
[60] = tested on: T-47D breast
[61] = tested on: DU-145 prostate
[62] = tested on: NCI/ADR-RES ovarian
[63] = tested on: A498 renal
[64] = tested on: MCF7 breast
[65] = tested on: SNB-19 CNS
[66] = tested on: HS 578T breast

N#CC(NNC(=O)c1ccccc1O)c1cccc(O)c1 (stereo not given)
TGI [1]: > 100 µM
TGI [2]: > 100 µM
TGI [3]: > 100 µM
TGI [4]: > 100 µM
TGI [5]: > 100 µM
TGI [6]: > 100 µM
TGI [7]: > 100 µM
TGI [8]: > 100 µM
TGI [9]: > 100 µM
TGI [10]: > 100 µM
TGI [11]: > 100 µM
TGI [12]: > 100 µM
TGI [13]: > 100 µM
TGI [14]: 11.1 µM
TGI [15]: 73.9 µM
TGI [16]: > 100 µM
TGI [17]: > 100 µM
TGI [18]: > 100 µM
TGI [19]: 18.5 µM
TGI [20]: > 100 µM
TGI [21]: > 100 µM
TGI [22]: 21.3 µM
TGI [23]: > 100 µM
TGI [24]: > 100 µM
TGI [25]: > 100 µM
TGI [26]: > 100 µM
TGI [27]: > 100 µM
TGI [28]: > 100 µM
TGI [29]: 88.5 µM
TGI [30]: > 100 µM
TGI [31]: > 100 µM
TGI [32]: > 100 µM
TGI [33]: > 100 µM
TGI [34]: > 100 µM
TGI [35]: 98.5 µM
TGI [36]: > 100 µM
TGI [37]: > 100 µM
TGI [38]: > 100 µM
TGI [39]: 5.63 µM
TGI [40]: > 100 µM
TGI [41]: > 100 µM
TGI [42]: > 100 µM
TGI [43]: > 100 µM
TGI [44]: > 100 µM
TGI [45]: > 100 µM
TGI [46]: > 100 µM
TGI [47]: 85.3 µM
TGI [48]: > 100 µM
TGI [49]: > 100 µM
TGI [50]: > 100 µM
TGI [51]: > 100 µM

NC(N)=NS(=O)(=O)c1ccc(NC(=O)c2ccc3nc4ccccc4c(Nc4ccc(S(N)(=O)=O)cc4)c3c2)cc1
TGI [1]: > 100 µM
TGI [2]: > 100 µM
TGI [3]: > 100 µM
TGI [4]: > 100 µM
TGI [5]: > 100 µM
TGI [6]: > 100 µM
TGI [7]: > 100 µM
TGI [8]: > 100 µM
TGI [9]: > 100 µM
TGI [10]: > 100 µM
TGI [11]: > 100 µM
TGI [52]: > 100 µM
TGI [12]: > 100 µM
TGI [13]: > 100 µM
TGI [53]: > 100 µM
TGI [15]: > 100 µM
TGI [16]: > 100 µM
TGI [17]: > 100 µM
TGI [54]: > 100 µM
TGI [18]: > 100 µM
TGI [19]: > 100 µM
TGI [20]: > 100 µM
TGI [22]: > 100 µM
TGI [55]: > 100 µM
TGI [56]: > 100 µM
TGI [23]: > 100 µM
TGI [24]: > 100 µM
TGI [26]: > 100 µM
TGI [27]: > 100 µM
TGI [29]: > 100 µM
TGI [30]: > 100 µM
TGI [31]: > 100 µM
TGI [57]: > 100 µM
TGI [58]: > 100 µM
TGI [59]: > 100 µM
TGI [32]: > 100 µM
TGI [33]: > 100 µM
TGI [60]: > 100 µM
TGI [34]: > 100 µM
TGI [61]: > 100 µM
TGI [35]: > 100 µM
TGI [36]: > 100 µM
TGI [62]: > 100 µM
TGI [37]: > 100 µM
TGI [63]: > 100 µM
TGI [39]: > 100 µM
TGI [64]: > 100 µM
TGI [41]: > 100 µM
TGI [42]: > 100 µM
TGI [43]: > 100 µM
TGI [65]: > 100 µM
TGI [45]: > 100 µM
TGI [46]: > 100 µM
TGI [47]: > 100 µM
TGI [66]: > 100 µM
TGI [48]: > 100 µM
TGI [49]: > 100 µM
TGI [50]: > 100 µM
TGI [51]: > 100 µM
